Source: patent US20080293775A1, “Substituted Diphenylethers, -Amines, -Sulfides and -Methanes for the Treatment of Respiratory Disease” (ASTRAZENECA AB, priority 2005, published 2008)

biological target: T1, rhCRTh2 (Homo sapiens, UniProt Q9Y5Y4); assay: Ligand binding assay ([3H]PGD2, SPA beads, HEK cell membranes); details: [3H]PGD2 binding to membranes of HEK cells expressing rhCRTh2/Gα16, SPA, 2 hours at RT; read-out: pIC50 value (converted)
T1 construct: expressed in transfected cells; host or cells: HEK cells (membrane preparation)
T1 sequence (Q9Y5Y4 1-395): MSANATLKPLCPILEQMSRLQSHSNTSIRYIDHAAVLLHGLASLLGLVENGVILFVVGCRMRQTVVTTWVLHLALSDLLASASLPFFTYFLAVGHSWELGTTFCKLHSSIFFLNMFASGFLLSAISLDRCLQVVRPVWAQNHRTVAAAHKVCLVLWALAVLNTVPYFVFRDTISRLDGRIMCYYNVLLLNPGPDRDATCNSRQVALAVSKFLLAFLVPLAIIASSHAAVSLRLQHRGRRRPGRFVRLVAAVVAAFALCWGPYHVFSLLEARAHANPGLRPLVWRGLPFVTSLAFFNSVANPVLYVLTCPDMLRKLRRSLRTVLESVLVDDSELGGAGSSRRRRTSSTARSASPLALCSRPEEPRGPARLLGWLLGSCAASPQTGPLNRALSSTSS
Protocol: [^3H]PGD2 was purchased from Perkin Elmer Life Sciences with a specific activity of 100-210 Ci/mmol. All other chemicals were of analytical grade.
HEK cells expressing rhCRTh2/Gα16 were routinely maintained in DMEM containing 10% Foetal Bovine Serum (HyClone), 1 mg/ml geneticin, 2 mM L-glutamine and 1% non-essential amino acids. For the preparation of membranes, the adherent transfected HEK cells were grown to confluence in two layer tissue culture factories (Fisher, catalogue number TKT-170-070E). Maximal levels of receptor expression were induced by addition of […] sodium butyrate for the last 18 hours of culture. The adherent cells were washed once with phosphate buffered saline (PBS, 50 ml per cell factory) and detached by the addition of 50 ml per cell factory of ice-cold membrane homogenisation buffer [20 mM HEPES (pH 7.4), 0.1 mM dithiothreitol, 1 mM EDTA, 0.1M phenyl methyl sulphonyl fluoride and 100 μg/ml bacitracin]. Cells were pelleted by centrifugation at 220×g for 10 minutes at 4° C., re-suspended in half the original volume of fresh membrane homogenisation buffer and disrupted using a Polytron homogeniser for 2×20 second bursts keeping the tube in ice at all times. […] The final pellet was re-suspended in 4 ml of membrane homogenisation buffer per cell factory used and the protein content determined. […]
All assays were performed in Corning clear bottomed, white 96-well NBS plates (Fisher). […] (The optimum coating concentrations were determined for each batch of membranes) The beads were pelleted by centrifugation (800×g for 7 minutes at 4° C.), washed once with assay buffer (50 mM HEPES pH 7.4 containing 5 mM magnesium chloride) and finally re-suspended in assay buffer at a bead concentration of 10 mg/ml. […]
Compounds and DK-PGD2 were dissolved in DMSO and diluted in the same solvent to 100× the required final concentration. […] The assay plate was incubated at RT for 2 hours and counted on a Wallac Microbeta liquid scintillation counter (1 minute per well).

Compound	IC50 [nM]
CS(=O)(=O)c1ccc(Sc2cc(Cl)ccc2OCc2nnn[nH]2)c(Cl)c1 [Example 4]	158
CC(=O)NS(=O)(=O)Cc1ccc(Cl)cc1Oc1ccc(S(C)(=O)=O)cc1Cl [Example 6, N-({4-chloro-2-[2-chloro-4-(methylsulfonyl)phenoxy]benzyl}sulfonyl)acetamide]	158
CS(=O)(=O)NC(=O)Cc1ccc(Cl)c(Oc2ccc(S(C)(=O)=O)cc2Cl)c1 [Example 9, 2-{4-chloro-3-[2-chloro-4-(methylsulfonyl)phenoxy]phenyl}-N-(methylsulfonyl)acetamide]	141
